Test results reported in article PMC8296708, “The pan HDAC inhibitor Givinostat improves muscle function and histological parameters in two Duchenne muscular dystrophy murine models expressing different haplotypes of the LTBP4 gene” (Skeletal Muscle, 2021).

Legend:
mdx mouse model = test system: mdx mouse model; design: method as in PMID 21137017; conditions: i.p.; cited from earlier work
[1] = design: method as in printed; conditions: mice; ref not given; cited from earlier work
D2.B10 mice [2] = assay: Muscle fibrosis by Sirius Red staining in D2.B10 mice; type: in vivo, mouse (D2.B10-Dmd^mdx/J)
From the text: (§1) Tibialis anterior (TA), gastrocnemius (GAS), DIA, and heart were collected from mice maintained under isoflurane anesthesia and sacrificed by cervical dislocation. These muscles were collected from C57BL/10J wt and mdx (5 mice/group) at the end of treatments and from DBA/2J wt and D2.B10 mice (5 mice/group) at two different time points to be examined by a pathologist (for more details see Additional Table 1). Due to the results obtained by the functional tests, muscles from only some treatment groups were analyzed in both DMD models (see Additional Table 1). All the collected muscles were fixed in 10% buffered formalin solution (Bio-optica, Milan, Italy) at + 4 °C for at least 48 h. After fixation, muscular samples were transversely trimmed, caged, and paraffin embedded overnight with an Automated Vacuum Tissue Processor Floor (ETP, Histo-Line Laboratories) and included in paraffin blocks. Serial transverse cross-sections (4 μm thick) were cut with a microtome (Leica RM 2255), collected onto uncoated glass slides, and stained using a standard protocol for hematoxylin and eosin (Mayer hematoxylin & Aqueous G Eosin 1%, Bio-Optica) and Sirius Red staining (Direct Red 80, Sigma-Aldrich). For the image analysis and quantitation, hematoxylin and eosin- and Sirius Red-stained slides were examined with an Olympus BX51 light microscope. From each sample, 1 to 3 random microphotographs at the magnification of × 4 and × 10 (TA, GAS and heart) or × 20 (DIA) were collected using Image-Pro Plus system. The digital images were processed by a pathologist using ImageJ software (U.S. National Institutes of Health, Bethesda, MD, USA). To quantify CSA and centralized nuclei (%) on hematoxylin and eosin-stained sections, one hundred myofibers were manually measured for each muscle/mouse using a tablet pen (Wacom Intruos) and analyzed by the ImageJ software after a linear calibration of 150 μm. The fibrotic area, corresponding to the area stained in red, was compared to the total area of the tissue section, and the results were expressed as percentage fibrosis. The % of fibrosis of muscles in the different treatment groups was expressed by averaging the three values obtained from each muscle.

D2.B10 mice [3] = assay: Myofiber cross-sectional area (CSA) in D2.B10 mice; type: in vivo, mouse (D2.B10-Dmd^mdx/J); conditions: D2.B10 muscles, 1 mg/kg i.p. weekly
From the text: as §1
The deciles of the CSA of the animals treated with Givinostat at the different doses were plotted against the corresponding deciles of the vehicle-treated mice and a linear regression analysis was performed on natural [CSAtreated = b CSAcontrol + a] and log_transformed data [log(CSAtreated) = log(a) + b log(CSAcontrol)]. […] In case of untransformed data, this means that the effect of Givinostat treatment is additive and any decile of the CSAtreatment distribution may be derived from the control data summing up a constant quantity (S) to each fiber AREA of the control group (CSAtreated = CSAcontrol + S). In case of log_transformed data, the effect of Givinostat has to be considered as a multiplicative factor on any generic fiber of the muscle under evaluation, whose size, after the treatment, results K times larger in comparison to the control group value (CSAtreated […] = K × CSAcontrol, with K = 10^a). The S or K parameter values were then determined through an iterative estimation procedure, based on sum of squares (SSQ) minimization, directly comparing the CSA distribution observed in treated animals with that obtained summing up the S value or multiplying by K the CSA values of the control group.

[4] = Body weight of D2.B10 mice; type: in vivo, mouse (D2.B10-Dmd^mdx/J); conditions: mouse, in vivo
Procedure: In the efficacy studies, Givinostat powder (ITF2357) was suspended in 0.5% methylcellulose (Sigma-Aldrich) and administered p.o. (by gavage) at the doses of 0.1, 0.3, 1, 5, 10, 25, and 37.5 mg/kg qdx5x15weeks (administration volume per mouse: 10 mL/kg) in mdx mice (see Additional Figure 1A). Vehicle-treated mdx mice received 0.5% methylcellulose suspension. Givinostat suspension was stored at + 4 °C, and it was freshly prepared every 7 days. Probably due to the impairment of their tongue and masticatory muscles, the oral gavage procedure turned out to be difficult to perform, and chronic treatment of D2.B10 mice by this route was considered to bear a high risk of damaging the esophagus. For this reason, Givinostat was administered in the drinking water. Givinostat was dissolved in filtered tap water and was administered in drinking water (throughout 24 h) for 105 days at the dose of 1, 5, 10, and 37.5 mg/kg/day, according to a daily estimate of water consumption of 4 ml/mouse/day. Water consumption was weekly monitored throughout the entire duration of the study weighing the bottle of each cage (maximum 4 mice per cage). Prednisone and Deflazacort powder (Sigma-Aldrich) was dissolved in 2% DMSO (Sigma-Aldrich) and diluted in sterile saline on injection days. Both drugs were administered weekly (for 15 weeks) by i.p. injection at the dose of 1 mg/kg in a volume of 10 mL/kg. […] All mice were monitored daily and tolerability was evaluated on the basis of BW and clinical signs.
In both efficacy studies, the effectiveness of treatments was evaluated every week by measuring the forelimb strength by a grip strength meter (Ugo Basile SRL, Italy). BW of mdx (see Additional Figure 2) and D2.B10 mice (see Additional Figure 3) was also measured in order to normalize the absolute grip strength of each mouse with respect to its BW. […] The highest recorded value of maximal normalized strength (FNmax) obtained for each mouse at all the time points (from T0 to T15) was used for further analysis.

D2.B10 mice [5] = assay: Grip strength test (FNmax) in D2.B10 mice; type: in vivo, mouse (D2.B10-Dmd^mdx/J)
From the text: (§2) For the efficacy studies, C57BL/10 J (Stock No: 000665) wild type (wt) and C57BL/10ScSn-Dmd^mdx/J (Stock No: 001801) 7–8-week-old male mice, DBA/2J wt (Stock No: 000671), and D2.B10-Dmd^mdx/J (Stock No: 013141) 6–7-week-old male mice were purchased from The Jackson Laboratories (Bar Harbor, Maine, USA). After 5 days of acclimatization in the animal facility, mice were randomized into different treatment groups based on their BW. C57BL/10J wt mice were assigned to the naive wt group (healthy mice that received no treatment, but were subjected to functional tests), whereas mdx mice were assigned to the following groups (9 mice/group; 4–5 mice/cage): naive mdx (mice that received no treatment, but were subjected to functional tests), vehicle (0.5% methylcellulose, p.o.), and Givinostat (0.1, 0.3, 1, 5, 10, 25, and 37.5 mg/kg, p.o.). DBA/2J mice were assigned to the naive wt group (healthy mice that received no treatment, but were subjected to functional tests), whereas D2.B10 mice were assigned to the following groups (12–13 mice/group; 4–5 mice/gage): vehicle (filtered tap water, p.o.), Givinostat (1, 5, 10, and 37.5 mg/kg, p.o.), prednisone 1 mg/kg, and Deflazacort 1 mg/kg (i.p.).
(§3) In the efficacy studies, Givinostat powder (ITF2357) was suspended in 0.5% methylcellulose (Sigma-Aldrich) and administered p.o. (by gavage) at the doses of 0.1, 0.3, 1, 5, 10, 25, and 37.5 mg/kg qdx5x15weeks (administration volume per mouse: 10 mL/kg) in mdx mice (see Additional Figure 1A). Vehicle-treated mdx mice received 0.5% methylcellulose suspension. Givinostat suspension was stored at + 4 °C, and it was freshly prepared every 7 days. Probably due to the impairment of their tongue and masticatory muscles, the oral gavage procedure turned out to be difficult to perform, and chronic treatment of D2.B10 mice by this route was considered to bear a high risk of damaging the esophagus. For this reason, Givinostat was administered in the drinking water. Givinostat was dissolved in filtered tap water and was administered in drinking water (throughout 24 h) for 105 days at the dose of 1, 5, 10, and 37.5 mg/kg/day, according to a daily estimate of water consumption of 4 ml/mouse/day. Water consumption was weekly monitored throughout the entire duration of the study weighing the bottle of each cage (maximum 4 mice per cage). Prednisone and Deflazacort powder (Sigma-Aldrich) was dissolved in 2% DMSO (Sigma-Aldrich) and diluted in sterile saline on injection days. Both drugs were administered weekly (for 15 weeks) by i.p. injection at the dose of 1 mg/kg in a volume of 10 mL/kg. Givinostat and steroid treatments started on days 7 and 9 of the experimental plan, respectively (see Additional Figure 1B). All mice were monitored daily and tolerability was evaluated on the basis of BW and clinical signs.
In both efficacy studies, the effectiveness of treatments was evaluated every week by measuring the forelimb strength by a grip strength meter (Ugo Basile SRL, Italy). BW of mdx (see Additional Figure 2) and D2.B10 mice (see Additional Figure 3) was also measured in order to normalize the absolute grip strength of each mouse with respect to its BW. The protocol provides 5 measurements for each mouse (the procedure was compliant with the standard operating procedures of TREAT–NMD Neuromuscular Network). The highest recorded value of maximal normalized strength (FNmax) obtained for each mouse at all the time points (from T0 to T15) was used for further analysis.
After taking baseline readings for behavioral assays (FNmax and distance run by the animals), mice were re-randomized based on these two parameters, also considering the previous randomization performed on their BW.
The grip strength and run to exhaustion tests were performed during the light-cycle phase, in the early hours of the morning (8:00–11:30 am). […]

D2.B10 mice [6] = assay: Treadmill run to exhaustion test in D2.B10 mice; type: in vivo, mouse (D2.B10-Dmd^mdx/J); conditions: Deflazacort, prednisone 1 mg/kg, lower doses of Givinostat
From the text: as §2, §3
Run to exhaustion performance of mdx and D2.B10 mice was evaluated every 14 or 21 days, respectively, using a treadmill apparatus (Ugo Basile SRL, Italy). The exhaustion protocol consisted in an initially horizontal running at 5 m/min for 5 min after which the speed was increased 1 m/min every minute until exhaustion (the procedure was compliant with the standard operating procedures of TREAT–NMD Neuromuscular Network). […]
After taking baseline readings for behavioral assays (FNmax and distance run by the animals), mice were re-randomized based on these two parameters, also considering the previous randomization performed on their BW. […]

[7] = design: method as in PMID 15269190; conditions: mice, i.p. dosing; cited from earlier work

For O=C(CCCCCCC(=O)Nc1ccccc1)NO [Vorinostat], the “Dose of peak functional and histologic effects (bell-shaped dose-response curve)” value (mdx mouse model) is given as 1.2 mg/kg and the Oral bioavailability [1] is given as “very poor oral bioavailability”.

With CC(=O)OCC(=O)[C@@]12N=C(C)O[C@@H]1C[C@H]1[C@@H]3CCC4=CC(=O)C=C[C@]4(C)[C@H]3[C@@H](O)C[C@@]12C [Deflazacort] the “Effect of steroid on fibrosis, summary” value (D2.B10 mice [2]; 1 mg/kg i.p. weekly) was “effective only in TA”, the “Reduction of fibrosis in DIA” value (D2.B10 mice [2]; T8) was “no significant effect” and the “Reduction of fibrosis in TA” value (D2.B10 mice [2]; T8, Givinostat 37.5 mg/kg, steroids 1 mg/kg, vs vehicle) was “about 22%”. The “Effect on fibrosis in GAS” value (D2.B10 mice [2]; T16) was “No significant effect”, the “Effect of steroid on cross-sectional area and centralized nuclei” value (D2.B10 mice [3]) was “unable to affect cross-sectional area or the number of centralized nuclei” and the “Body weight vs vehicle-treated mice” value [4] was “no significant differences”. The “Effect of steroid on FNmax in comparison” value (D2.B10 mice [5]; 1 mg/kg i.p. weekly, all the treatment period) was “lower and not significantly different from prednisone”, the “Time interval of significant FNmax improvement” value (D2.B10 mice [5]; Deflazacort 1 mg/kg i.p. weekly, Givinostat 1 mg/kg) was “from day 28 to day 90” and the “Effect on distance run, significance” value (D2.B10 mice [6]) was “not statistically significant”.

In the case of CC(/C=C/C(=O)NO)=C\[C@@H](C)C(=O)c1ccc(N(C)C)cc1 [TSA, trichostatin A], the Half-life [7] is given as 6.3 min and the Peak plasma concentrations [7] is given as “micromolar”.
